{"source": "patent US20250352596A1", "about": "“DIETARY SUPPLEMENTS FOR MOOD SUPPORT” (Melaleuca, Inc., priority 2024, published 2025)", "type_in_all_cases": "biochemical", "key": {"GRK2": {"biological_target": "T1, GRK2 (Homo sapiens, UniProt P25098)", "T1 sequence (P25098 1-689)": "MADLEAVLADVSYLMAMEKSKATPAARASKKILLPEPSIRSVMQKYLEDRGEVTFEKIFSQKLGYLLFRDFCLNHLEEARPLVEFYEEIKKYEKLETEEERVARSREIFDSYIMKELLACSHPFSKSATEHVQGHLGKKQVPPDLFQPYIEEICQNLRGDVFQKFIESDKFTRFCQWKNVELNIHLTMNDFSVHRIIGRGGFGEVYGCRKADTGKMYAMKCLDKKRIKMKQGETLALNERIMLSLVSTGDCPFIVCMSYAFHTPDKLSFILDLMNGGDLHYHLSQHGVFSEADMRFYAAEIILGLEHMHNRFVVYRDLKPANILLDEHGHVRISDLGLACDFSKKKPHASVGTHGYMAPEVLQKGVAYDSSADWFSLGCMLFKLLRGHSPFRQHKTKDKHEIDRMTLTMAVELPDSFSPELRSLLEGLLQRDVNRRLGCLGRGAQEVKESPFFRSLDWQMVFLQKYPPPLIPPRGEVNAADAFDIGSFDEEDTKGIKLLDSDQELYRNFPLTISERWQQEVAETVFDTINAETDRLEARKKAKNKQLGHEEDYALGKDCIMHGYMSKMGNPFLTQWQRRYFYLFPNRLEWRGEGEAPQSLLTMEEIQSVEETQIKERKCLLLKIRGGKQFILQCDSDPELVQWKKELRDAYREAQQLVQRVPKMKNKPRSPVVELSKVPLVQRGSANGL", "experiment": "kinase inhibition, IC50 of Blend A, ingredients and control"}, "ERK1": {"biological_target": "ERK1 (Homo sapiens, UniProt P27361)", "sequence (P27361 whole entry, species assumed)": "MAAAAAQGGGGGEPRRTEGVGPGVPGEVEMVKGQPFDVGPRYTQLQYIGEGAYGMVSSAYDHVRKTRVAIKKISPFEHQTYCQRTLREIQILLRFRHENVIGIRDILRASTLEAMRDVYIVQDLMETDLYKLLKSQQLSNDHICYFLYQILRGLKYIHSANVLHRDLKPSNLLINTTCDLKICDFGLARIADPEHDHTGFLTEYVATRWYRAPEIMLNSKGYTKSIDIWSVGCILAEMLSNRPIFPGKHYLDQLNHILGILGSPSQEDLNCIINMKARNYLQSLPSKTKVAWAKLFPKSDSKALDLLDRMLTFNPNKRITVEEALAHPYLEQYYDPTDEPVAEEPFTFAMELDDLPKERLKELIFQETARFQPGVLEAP", "experiment": "kinase inhibition screen, IC50 of Blend A vs control compound", "settings": "initial investigation, Table 17; Blend A head reads IC50* (asterisk unexplained)", "source_text": "The cellular mechanism of action of known pharmaceutical compounds targeting mental health require the inhibition of individual enzymes. For example, one of the most well-known pharmaceuticals utilized in the mental health space, lithium, can trace its efficacy in part to the inhibition of an enzyme called glycogen synthase kinase 3 (GSK3). A technique similar to one used in the pharmaceutical industry was used to determine study a mood support composition. See, e.g., Duong-Ly, K. C. & Peterson, J. R. Curr. Protoc. Pharmacol. Chapter 2, Unit2.9 (2013); Ma, H. et al. Expert Opin. Drug Discov.\nWithin the body, protein kinases are responsible for carrying out cellular and intracellular actions, such as cell-to-cell signaling, neurotransmitter regulation, and hormone release. Several protein kinases are known to influence mood, and many are targets of therapeutic drugs. As a natural alternative to pharmaceuticals, Blend A was screened for efficacy of inhibiting 18 common, mood-related drug targets, including 17 kinases and 1 enzyme."}, "GSK3α": {"biological_target": "GSK3α (Homo sapiens, UniProt P49840)", "sequence (P49840 whole entry, species assumed)": "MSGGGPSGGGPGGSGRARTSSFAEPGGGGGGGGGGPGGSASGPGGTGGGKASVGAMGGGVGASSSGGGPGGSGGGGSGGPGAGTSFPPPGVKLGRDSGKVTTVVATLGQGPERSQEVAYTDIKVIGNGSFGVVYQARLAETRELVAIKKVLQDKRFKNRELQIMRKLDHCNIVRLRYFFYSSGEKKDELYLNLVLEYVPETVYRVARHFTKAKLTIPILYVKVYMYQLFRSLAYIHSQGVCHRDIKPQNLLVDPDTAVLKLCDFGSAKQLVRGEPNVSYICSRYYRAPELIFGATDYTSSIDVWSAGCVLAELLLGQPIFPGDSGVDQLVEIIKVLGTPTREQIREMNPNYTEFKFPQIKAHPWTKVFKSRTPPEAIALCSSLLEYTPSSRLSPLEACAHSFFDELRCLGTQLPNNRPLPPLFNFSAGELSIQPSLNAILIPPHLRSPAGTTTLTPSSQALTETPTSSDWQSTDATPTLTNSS", "experiment": "kinase inhibition, IC50 of Blend A, ingredients and control", "settings": "follow up investigation; for inositol the upper limit of use (1 mM) was used in the calculation"}, "GSK3β": {"biological_target": "GSK3β (Homo sapiens, UniProt P49841)", "sequence (P49841 whole entry, species assumed)": "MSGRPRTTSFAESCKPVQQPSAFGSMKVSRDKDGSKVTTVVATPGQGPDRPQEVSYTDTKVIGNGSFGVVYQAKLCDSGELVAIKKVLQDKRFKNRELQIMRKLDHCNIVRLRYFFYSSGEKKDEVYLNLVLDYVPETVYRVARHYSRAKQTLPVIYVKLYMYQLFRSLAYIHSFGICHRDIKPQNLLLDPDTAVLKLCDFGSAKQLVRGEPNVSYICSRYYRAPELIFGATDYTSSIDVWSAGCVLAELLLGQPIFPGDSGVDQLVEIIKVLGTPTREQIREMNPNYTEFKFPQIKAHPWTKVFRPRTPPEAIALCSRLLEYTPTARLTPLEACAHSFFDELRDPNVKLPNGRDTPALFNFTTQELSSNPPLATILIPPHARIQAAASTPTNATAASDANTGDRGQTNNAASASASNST", "experiment": "kinase inhibition, IC50 of Blend A, ingredients and control", "settings": "follow up investigation; for inositol the upper limit of use (1 mM) was used in the calculation"}}}
{"smiles": "CN[C@@H]1C[C@H]2O[C@@](C)([C@@H]1OC)n1c3ccccc3c3c4c(c5c6ccccc6n2c5c31)C(=O)NC4", "note": "[STAUROSPORINE, staurosporine, reference compound]", "values": [{"measurement": "Reciprocal Sum", "setting": "GRK2; Table 19, sum of the two analyses, each 50% weight", "result": "1.60E+06"}]}
{"smiles": "O=C(Nc1ccc2[nH]nc(-c3ccncc3)c2c1)[C@@H]1CCN(CC(=O)N2CCN(c3ccc(-c4ncccn4)cc3)CC2)C1", "note": "[SCH772984]", "values": [{"measurement": "IC50", "setting": "ERK1", "result": 5.57, "unit": "nM"}]}
{"smiles": "O[C@H]1[C@H](O)[C@@H](O)[C@H](O)[C@@H](O)[C@H]1O", "note": "[Inositol, inositol]", "values": [{"measurement": "efficacy for inhibiting the target, in words", "setting": "GSK3α", "result": "did not demonstrate efficacy"}, {"measurement": "efficacy for inhibiting the target, in words", "setting": "GRK2; follow up investigation, for inositol the upper limit of use (1 mM) was used in the calculation", "result": "did not demonstrate efficacy"}, {"measurement": "efficacy for inhibiting the target, in words", "setting": "GSK3β", "result": "did not demonstrate efficacy"}]}
